Measured values: patent publication US9302999B2, “Substituted triazoles as herbicides” (E. I. DU PONT DE NEMOURS AND COMPANY, priority 2012, dated 2016)
Like-named read-outs stand apart in the source and are kept apart here.

How the values were obtained:
Type in all cases: in vivo
[1] = tested on: large crabgrass (Digitaria sanguinalis); assay: Test C pre-/postemergence: large crabgrass
How it was run: (§1)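 Visual injury scored 0–100 (100 = complete control) against untreated controls after 13–15 greenhouse days. Surfactant-containing solvent formulations applied either to soil after sowing (loam/sand) or over 1- to 4-leaf plants, 2–18 cm tall.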

[2] = tested on: corn (Zea mays); assay: Test A pre-/postemergence: corn; conditions: Zea mays, 240 h; for Corn plant response rating (crop injury, 0 = no effect, 100 = complete kill) at 125 g/ha: 125 g ai/ha
How it was run: (§2)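 Soil medium was loam blended with sand; treatments pre- and postemergence were applied concurrently, postemergence at one- to two-leaf stage. Approximately ten days in greenhouse preceded visual comparison with untreated controls, scored 0 (no effect) to 100 (complete control).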

[3] = tested on: barnyardgrass (Echinochloa crus-galli); assay: Test A pre-/postemergence: barnyardgrass; conditions: Echinochloa crus-galli, 240 h; for pest or weed control at 125 g/ha: 125 g ai/ha; for pest or weed control at 500 g/ha: 500 g ai/ha
How it was run: as §2

[4] = tested on: nutsedge, yellow (yellow nutsedge, Cyperus esculentus); assay: Test C pre-/postemergence: nutsedge, yellow
How it was run: as §1

[5] = tested on: kochia (Kochia scoparia); assay: Test C pre-/postemergence: kochia
How it was run: as §1

[6] = tested on: morningglory (Ipomoea spp.); assay: Test A pre-/postemergence: morningglory; conditions: Ipomoea, 240 h; for pest or weed control at 125 g/ha: 125 g ai/ha; for pest or weed control at 500 g/ha: 500 g ai/ha
How it was run: as §2

[7] = tested on: ryegrass, Italian (Italian ryegrass, Lolium multiflorum); assay: Test C pre-/postemergence: ryegrass, Italian
How it was run: as §1

[8] = tested on: pigweed (Amaranthus retroflexus); assay: Test C pre-/postemergence: pigweed
How it was run: as §1

[9] = tested on: winter wheat (Triticum aestivum); assay: Test C pre-/postemergence: winter wheat
How it was run: as §1

[10] = tested on: johnsongrass (Sorghum halepense); assay: Test C pre-/postemergence: johnsongrass
How it was run: as §1

[11] = tested on: galium (catchweed bedstraw, Galium aparine); assay: Test C pre-/postemergence: galium
How it was run: as §1

[12] = Postemergence, 31 g ai/ha, scale 0 to 100 (0 no effect, 100 complete control)
[13] = Postemergence, 62 g ai/ha, scale 0 to 100 (0 no effect, 100 complete control)
[14] = Postemergence, 125 g ai/ha, scale 0 to 100, 0 no effect, 100 complete control
[15] = Preemergence, 31 g ai/ha, scale 0 (no effect) to 100 (complete control)
[16] = Preemergence, 62 g ai/ha, scale 0 to 100, 0 no effect, 100 complete control
[17] = Preemergence, 125 g ai/ha, scale 0 to 100, 0 no effect, 100 complete control
[18] = Preemergence, 250 g ai/ha, scale 0 to 100, 0 no effect, 100 complete control
[19] = Postemergence, 250 g ai/ha, scale 0 to 100 (0 no effect, 100 complete control)

SMILES: CCOc1nn(-c2ccc(F)cc2)nc1Cc1ccnc(C(F)(F)F)c1 [Compound 196, 4-[[5-ethoxy-2-(4-fluorophenyl)-2H-1,2,3-triazol-4-yl]methyl]-2-(trifluoromethyl)pyridine]
- Plant response rating, Crabgrass, Large [1, 12]: 80
- Plant response rating, Crabgrass, Large [1, 13]: 85
- Plant response rating, Crabgrass, Large [1, 14]: 85
- Plant response rating, Crabgrass, Large ([1]; Postemergence, 250 g ai/ha, scale 0 to 100): 95
- Plant response rating, Crabgrass, Large [1, 15]: 100
- Plant response rating, Crabgrass, Large [1, 16]: 100
- Plant response rating, Crabgrass, Large [1, 17]: 100
- Plant response rating, Crabgrass, Large [1, 18]: 100
- Corn plant response rating (crop injury, 0 = no effect, 100 = complete kill) at 125 g/ha ([2]; post-emergence, Postemergence, 0 to 100 scale, 0 is no effect, 100 is complete control): 70%
- plant injury at 500 g/ha ([2]; post-emergence, Postemergence, 500 g ai/ha, 0 to 100 scale, 0 is no effect, 100 is complete control, read-out: Corn plant response rating): 80%
- Corn plant response rating (crop injury, 0 = no effect, 100 = complete kill) at 125 g/ha ([2]; pre-emergence, Preemergence, 0 to 100 scale where 0 is no effect and 100 is complete control): 30%
- Corn plant response rating (crop injury, 0 = no effect, 100 = complete kill) at 500 g/ha ([2]; pre-emergence, Preemergence, 500 g ai/ha, 0 to 100 scale (0 no effect, 100 complete control)): 50%
- pest or weed control at 125 g/ha ([3]; post-emergence, Postemergence, 0 to 100 scale, 0 is no effect, 100 is complete control, read-out: Plant response rating, Barnyardgrass): 80%
- pest or weed control at 500 g/ha ([3]; post-emergence, Postemergence, 0 to 100 scale, 0 is no effect, 100 is complete control, read-out: Barnyardgrass plant response rating): 90%
- pest or weed control at 125 g/ha ([3]; pre-emergence, Preemergence, 0 to 100 scale where 0 is no effect and 100 is complete control, read-out: Plant response rating, Barnyardgrass): 100%
- pest or weed control at 500 g/ha ([3]; pre-emergence, Preemergence, 0 to 100 scale (0 no effect, 100 complete control), read-out: Plant response rating, Barnyardgrass): 100%
- Plant response rating, Nutsedge, Yellow [4, 12]: 10
- Plant response rating, Nutsedge, Yellow [4, 13]: 10
- Plant response rating, Nutsedge, Yellow [4, 14]: 15
- Plant response rating, Nutsedge, Yellow [4, 19]: 20
- Plant response rating, Nutsedge, Yellow [4, 15]: 0
- Plant response rating, Nutsedge, Yellow [4, 16]: 0
- Plant response rating, Nutsedge, Yellow [4, 17]: 5
- Plant response rating, Nutsedge, Yellow [4, 18]: 10
- Plant response rating, Kochia [5, 12]: 85
- Plant response rating, Kochia [5, 13]: 90
- Plant response rating, Kochia [5, 14]: 90
- Plant response rating, Kochia [5, 19]: 90
- Plant response rating, Kochia [5, 15]: 90
- Plant response rating, Kochia [5, 16]: 98
- Plant response rating, Kochia [5, 17]: 98
- Plant response rating, Kochia [5, 18]: 98
- pest or weed control at 125 g/ha ([6]; post-emergence, Postemergence, 0 to 100 scale, 0 is no effect, 100 is complete control, read-out: Plant response rating, Morningglory): 100%
- pest or weed control at 500 g/ha ([6]; post-emergence, Postemergence, 0 to 100 scale, 0 is no effect, 100 is complete control, read-out: Morningglory plant response rating): 100%
- pest or weed control at 125 g/ha ([6]; pre-emergence, Preemergence, 0 to 100 scale where 0 is no effect and 100 is complete control, read-out: Plant response rating, Morningglory): 60%
- pest or weed control at 500 g/ha ([6]; pre-emergence, Preemergence, 0 to 100 scale (0 no effect, 100 complete control), read-out: Plant response rating, Morningglory): 90%
- Plant response rating, Ryegrass, Italian [7, 12]: 35
- Plant response rating, Ryegrass, Italian [7, 13]: 60
- Plant response rating, Ryegrass, Italian [7, 14]: 85
- Plant response rating, Ryegrass, Italian [7, 19]: 85
- Plant response rating, Ryegrass, Italian [7, 15]: 80
- Plant response rating, Ryegrass, Italian [7, 16]: 90
- Plant response rating, Ryegrass, Italian [7, 17]: 90
- Plant response rating, Ryegrass, Italian [7, 18]: 90
- Plant response rating, Pigweed [8, 12]: 98
- Plant response rating, Pigweed [8, 13]: 98
- Plant response rating, Pigweed [8, 14]: 98
- Plant response rating, Pigweed [8, 19]: 98
- Plant response rating, Pigweed [8, 15]: 95
- Plant response rating, Pigweed [8, 16]: 98
- Plant response rating, Pigweed [8, 17]: 98
- Plant response rating, Pigweed [8, 18]: 98
- Plant response rating, Wheat [9, 12]: 15
- Plant response rating, Wheat [9, 13]: 35
- Plant response rating, Wheat [9, 14]: 45
- Plant response rating, Wheat [9, 19]: 45
- Plant response rating, Wheat [9, 15]: 0
- Plant response rating, Wheat [9, 16]: 15
- Plant response rating, Wheat [9, 17]: 40
- Plant response rating, Wheat [9, 18]: 50
- Plant response rating, Johnsongrass [10, 12]: 80
- Plant response rating, Johnsongrass [10, 13]: 90
- Plant response rating, Johnsongrass [10, 14]: 90
- Plant response rating, Johnsongrass [10, 19]: 95
- Plant response rating, Johnsongrass [10, 15]: 98
- Plant response rating, Johnsongrass [10, 16]: 100
- Plant response rating, Johnsongrass [10, 18]: 100
- Plant response rating, Galium [11, 12]: 80
- Plant response rating, Galium [11, 13]: 85
- Plant response rating, Galium [11, 14]: 90
- Plant response rating, Galium [11, 19]: 95
- Plant response rating, Galium [11, 15]: 85
- Plant response rating, Galium [11, 16]: 95
- Plant response rating, Galium [11, 17]: 98
- Plant response rating, Galium [11, 18]: 100
